The text below walks through data of publication PMC11590026, “Synthesis, enzyme inhibition, and docking studies of new schiff bases of disalicylic acid methylene-based derivatives as dual-target antibacterial agents” (Frontiers in Chemistry, 2024).

Data set [1] addresses S. aureus topoisomerase IV. The following applies: internal standard value stated in the supplementary method; cited from earlier work.
For another data set, the system named is C. albicans. The experiment in a line: Antifungal assay (MIC/MFC), twofold serial dilution.
A further data set deals with S. aureus biofilm. The experiment in a line: Antibiofilm assay, microtiter plate biofilm quantification.
A further data set deals with DHFR E. Coli (Escherichia coli, UniProt P0ABQ4). The experiment in a line: DHFR inhibitory assay. The following applies: read-out: IC50 DHFR E. Coli. The class given is biochemical.
Chain of DHFR E. Coli (P0ABQ4 whole entry): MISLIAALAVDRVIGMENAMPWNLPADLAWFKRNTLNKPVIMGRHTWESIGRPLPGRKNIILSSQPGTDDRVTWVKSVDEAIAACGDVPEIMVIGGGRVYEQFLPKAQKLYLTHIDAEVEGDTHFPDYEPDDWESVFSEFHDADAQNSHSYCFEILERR
The subject of data set [2] is S. aureus (ATCC 43300) (MRSA). The experiment in a line: Antibacterial assay against multi-drug resistant strains (MIC/MBC). Type of data set: cell-based, Staphylococcus aureus. The following applies: for MBC / MIC: S. aureus ATCC 43300 (MRSA).
A further data set deals with E. coli DNA gyrase (Escherichia coli, UniProt P0AES6). Briefly: E. coli DNA gyrase supercoiling inhibitory assay. Type of data set: biochemical. As for the experimental part: The fluorescence was measured with a microplate reader (BioTek Synergy H4,
NaCl and 50 mM MgCl2) was added to terminate the enzymatic reaction. After
Initial screening was done at 100 or 10 μM concentration

For another data set, the system named is P. aeruginosa. Briefly: MIC/MBC assay, twofold serial dilution. The class given is cell-based, Pseudomonas aeruginosa. The method, then:
(§1) The results of this in vitro assay test are consistent with the findings of the antimicrobial sensitivity test. […] It has lower antimicrobial activity than ciprofloxacin against all pathogens tested.
(§2) The MBC differs from the MIC. […]
(§3) 4.2.2. Minimum inhibitory concentration assay
(§4) In 96-well microtiter plates and […] of fresh bacterial culture of a single McFarland unit overnight, a double serial dilution of each compound […] in sterile standard saline were prepared to every single source well. Ciprofloxacin antibiotic (5 mg / mL - 1) and normal saline were included as standard reference in each assay. The plates were incubated at 37 0C overnight. As an indicator of bacterial growth, […] of p-iodonitrotetrazolium violet (INT) was added to each well and incubated at 37 0C for 30 […]
(§5) min. MIC values are recorded as the lowest concentration of the extract that completely inhibited bacterial growth that is clear well. The colorless tetrazolidium salt acts as an electron accepter and is reduced to a red colored formazan product by biological activity organisms. Where bacterial growth was inhibited, the solution in the well remained clear after incubation with INT. […]

The test system of the next data set is S. aureus. Briefly: MIC/MBC assay, twofold serial dilution. The class given is cell-based, Staphylococcus aureus. The method, then: as §1, §2, §3, §4, §5
A short description of data set [3]: Cell viability assay (MTT). Type of data set: cell-based. The conditions noted are these: human, MCF-10A cells (normal mammary gland epithelial cell line), 4-day incubation. The method, then: The vitality of the investigated compounds was assessed using the MCF-10A cell line, which is a normal human mammary gland epithelial cell line. Following a 4-day incubation period on MCF-10A cells with a concentration of 50 µM for each compound being studied, the viability of the cells was assessed using the MTT test ([Hisham et al., 2022]; [Mahmoud et al., 2022]).
4.2.3. Cell Viability assay
MTT assay was carried out to study the effect of compounds on mammary epithelial cells (MCF-10A). The medium in which cells were propagated contained Dulbecco's modified Eagle's medium (DMEM)/ Ham's F-12 medium (1:1) supplemented with epidermal growth factor (20 ng/mL), hydrocortisone (500 ng/mL), insulin (10 μg/mL), 2 mM glutamine and 10% fetal calf serum. After every 2-3 days, the cells were passaged using trypsin ethylenediamine tetra acetic acid (EDTA). The cells were seeded at a density of 10^4 cells mL-1 in flat-bottomed culture plates containing 96 wells each. After 24 h, medium was removed from the plates and the compounds in (in 0.1% DMSO) were added (in 200 μL medium to yield a final concentration of 0.1% v/v) to the wells of plates. A single compound was designated with four wells followed by incubation of plates for 96h at 37°C. After incubation, medium was removed completely from the plates followed by addition of MTT (0.4 mg/mL in medium) to each well and subsequent incubation of plates for 3h. MTT (along with the medium) was removed and DMSO (150μL) was added to each well of the culture plates, followed by vortexing and subsequent measurement of absorbance (at 540 nm) using microplate reader. The data are shown as percentage inhibition of proliferation in comparison with controls

Another data set has as its system E. coli (ATCC BAA-196). The experiment in a line: Antibacterial assay against multi-drug resistant strains (MIC/MBC). The class given is cell-based, Escherichia coli.
A further data set relates to Gram-positive bacteria. The experiment in a line: MBC assay, Gram-positive bacteria together. The class given is cell-based. The conditions noted are these: Gram-positive bacteria (B. subtilis, S. aureus). From the text:
The MBC differs from the MIC.

The subject of the next data set is A. flavus. The experiment in a line: Antifungal assay (MIC/MFC), twofold serial dilution. The conditions noted are these: for MIC: A. flavus.
Data set [4] has as its system P. aeruginosa (ATCC BAA-2111). The experiment in a line: Antibacterial assay against multi-drug resistant strains (MIC/MBC). The class given is cell-based, Pseudomonas aeruginosa.
Another data set concerns B. subtilis. Briefly: MIC/MBC assay, twofold serial dilution. Type of data set: cell-based, Bacillus subtilis. As for the experimental part:
as §1, §2, §3, §4, §5

A further data set deals with E. coli. The experiment in a line: MIC/MBC assay, twofold serial dilution. Type of data set: cell-based, Escherichia coli. The method, then:
as §1, §2, §3, §4, §5

In the next data set the target is S. aureus DNA gyrase. Also noted: method as in Alzahrani et al., 2022. The conditions noted are these: ref Alzahrani et al., 2022; read-out: S. aureus DNA gyrase inhibitor IC50; cited from earlier work.
Where [5] appears, read: Staphylococcus aureus, read-out: MBC.
The mark [6] stands for this setting: Staphylococcus aureus, read-out: MIC.

≈ marks a conversion by molar mass, not a printed value. Like-named read-outs stand apart in the source and are kept apart here.

Description for S. aureus biofilm: Microtiter plate assay for biofilm quantification
The effect of sample on biofilm formation was evaluated in 96-well polystyrene
flatbottom plates. Briefly, 300 𝜇L of inoculated fresh trypticase soy yeast broth (TSY)
Wells containing medium and those without
extracts and only with methanol were used as controls. Plates were incubated at 37∘C
for 48h. After incubation, supernatant was removed and each well was washed
thoroughly with sterile distilled water to remove free-floating cells; thereafter plates
were air-dried for 30min, and the biofilm formed was stained during 15 min at room
temperature with 0.1% aqueous solution of crystal violet. Following incubation, the
excess of stain was removed by washing the plate three times with sterile distilled water.
each well and after 15min of incubation, absorbance was measured using microplate
reader at a wavelength of 570 nm.
Biofilm inhibition ability of sample=(1- (absorb. sample - absorb. Blank))/
(absorb. control - absorb. Blank))*100

The IC50 is the midpoint of a concentration-inhibition curve. On to `CO[C@@H]1[C@@H](OC(N)=O)[C@@H](O)[C@H](Oc2ccc3c(O)c(NC(=O)c4ccc(O)c(CC=C(C)C)c4)c(=O)oc3c2C)OC1(C)C` [Novobiocin], for which the IC50 in [1] was 26.7 µM.

A word on the MIC: it is the lowest concentration found to suppress growth. The term MFC denotes the smallest concentration meeting the test's criterion for killing the fungus. Read a low MFC as greater fungicidal potency. What is called MBC is the smallest concentration meeting the test's criterion for killing. The term viability denotes a read-out of living cells in per cent, often relative to untreated cells. For `O=C1Nc2ccc(Cl)cc2/C1=N/NC(=O)c1cc(Cc2ccc(O)c(C(=O)N/N=C3\C(=O)Nc4ccc(Cl)cc43)c2)ccc1O` [Compound 6h], the MIC was 18.20 ± 1 µM (≈ 11.7 µg/mL) in the data set on C. albicans (C. albicans); 18.2 µM (≈ 11.7 µg/mL) against C. albicans (Candida albicans); 1.70 ± 0.10 µM (≈ 1.09 µg/mL) in data set [2]; 1.7 µM (≈ 1.09 µg/mL) in [2] (setting [6]); 0.055 ± 0.004 µM (≈ 0.0354 µg/mL) against P. aeruginosa; 0.055 µM (≈ 0.0354 µg/mL) in the data set on P. aeruginosa (Pseudomonas aeruginosa, read-out: MIC). Further, the MIC in the data set on S. aureus stood at 0.019 ± 0.001 µM (≈ 0.0122 µg/mL); in the data set on S. aureus (setting [6]), 0.019 µM (≈ 0.0122 µg/mL); against E. coli (ATCC BAA-196) it was 1.90 ± 0.10 µM (≈ 1.22 µg/mL); with E. coli (ATCC BAA-196) (Escherichia coli, ATCCBAA196, read-out: MIC), 1.9 µM (≈ 1.22 µg/mL); in the data set with A. flavus, 14.50 µM (≈ 9.33 µg/mL); in the data set on A. flavus (listed as 6 h), 14.50 ± 1 µM (≈ 9.33 µg/mL). Also, the MIC was 14.5 to 19.5 µM (≈ 9.33 to 12.5 µg/mL) in the data set on A. flavus (Aspergillus flavus); 3.40 ± 0.20 µM (≈ 2.19 µg/mL) in data set [4]; 3.4 µM (≈ 2.19 µg/mL) in [4] (Pseudomonas aeruginosa, ATCCBAA2111, read-out: MIC); 0.024 ± 0.002 µM (≈ 0.0154 µg/mL) in the data set with B. subtilis; 0.024 µM (≈ 0.0154 µg/mL) with B. subtilis (Bacillus subtilis, read-out: MIC); 0.054 ± 0.003 µM (≈ 0.0347 µg/mL) against E. coli. For the same molecule, the MIC in the data set on E. coli (Escherichia coli, read-out: MIC) turned out to be 0.054 µM (≈ 0.0347 µg/mL). Besides, the MFC with C. albicans (Candida albicans) stood at 36.5 ± 2 µM (≈ 23.5 µg/mL); against A. flavus (Aspergillus flavus), 28.5 ± 1 µM (≈ 18.3 µg/mL). Also, the Biofilm inhibition % came to 87.66% in the data set with S. aureus biofilm (1/2 MIC of 6h (S. aureus ATCC 43300)); 88% with S. aureus biofilm (1/2 MIC of 6h (S. aureus ATCC 43300), listed as 6 h); 64.10% in the data set with S. aureus biofilm (1/4 of MIC of 6h (S. aureus ATCC 43300)); 64% in the data set on S. aureus biofilm (1/4 of MIC of 6h (S. aureus ATCC 43300), listed as 6 h); 96.95% in the data set with S. aureus biofilm (MIC of 6h (S. aureus ATCC 43300)); 97% in the data set with S. aureus biofilm (MIC of 6h (S. aureus ATCC 43300), listed as 6 h). The IC50 stood at 3.8 ± 0.1 µM at DHFR E. Coli and 0.079 ± 0.005 µM at E. coli DNA gyrase (read-out: IC50 E. Coli DNA gyrase). For the same molecule, the “Times more potent than norfloxacin (MBC)” value in data set [2] (MRSA strain S. aureus ATCC 43300) is given as “around 1.2 times”. Besides, the MBC came out at 3.20 ± 0.15 µM (≈ 2.06 µg/mL) in [2]; 3.9 µM (≈ 2.51 µg/mL) in [2] (setting [5]); 0.074 ± 0.005 µM (≈ 0.0476 µg/mL) in the data set with P. aeruginosa; 0.074 µM (≈ 0.0476 µg/mL) in the data set with P. aeruginosa (Pseudomonas aeruginosa, read-out: MBC); 0.028 ± 0.001 µM (≈ 0.018 µg/mL) against S. aureus; 0.028 µM (≈ 0.018 µg/mL) in the data set on S. aureus (setting [5]). Moreover, the MBC with E. coli (ATCC BAA-196) (Escherichia coli, ATCCBAA196) is 3.7 ± 0.2 µM (≈ 2.38 µg/mL); with Gram-positive bacteria, 0.028 to 0.058 µM (≈ 0.018 to 0.0373 µg/mL); in [4] (Pseudomonas aeruginosa, ATCCBAA2111), 5.8 ± 0.3 µM (≈ 3.73 µg/mL); against B. subtilis, 0.038 ± 0.002 µM (≈ 0.0245 µg/mL); in the data set on B. subtilis (Bacillus subtilis, read-out: MBC), 0.038 µM (≈ 0.0245 µg/mL); in the data set with E. coli (Escherichia coli, read-out: MBC), 0.074 ± 0.006 µM (≈ 0.0476 µg/mL). In addition, on E. coli DNA gyrase, the “Potency relative to novobiocin against DNA gyrase” value is “twice as potent as novobiocin”. Moreover, in the data set with S. aureus, the “Times more effective than ciprofloxacin (MIC)” value came to 1.5 times. In data set [3], this molecule displayed a viability at 96 h, 50 µM of 93%. Further, in the data set on B. subtilis, the “Times less effective than ciprofloxacin (MIC)” value was 2.5 times.

For the molecule `O=C1Nc2ccc(S(=O)(=O)N3CCOCC3)cc2/C1=N/NC(=O)C12CC3CC(CC(C3)C1)C2` [II], the IC50 on S. aureus DNA gyrase was 19.3 µM.

Consider `CCN(CC)S(=O)(=O)c1ccc2c(c1)C1(C(=O)N2)C(C#N)=COC(c2ccccc2)=C1C(C)=O` (stereo not shown) [I], for which the IC50 at S. aureus DNA gyrase was 18.1 µM.
